Where “and” joins values, the source holds several entries; their conditions need not be identical. Equal values may be shown once. Where a name gives a salt, the structure may show the parent alone.
Assays:
[1] = molecular target: T1, p38alpha (Homo sapiens, UniProt Q16539); test: P38alpha enzyme inhibition assay (Alphascreen kinase activity assay); type: biochemical; conditions: IC50 classes; 2 hours preincubation at 25° C., 250 μM ATP; read-out: p38α inhibition
T1 construct: purchased Invitrogen PV3304
Experimental: P38alpha Enzyme Inhibition Assay
The inhibitory activity of compounds was determined using an Alphascreen® (Perkin Elmer) based kinase activity assay. Kinase reactions consisted of 25 mM HEPES pH 7.5, 10 mM MgCl2, 100 μM Na3VO4, 2 mM DTT, 0.05 mg/ml Tween […] (Invitrogen, PV3304), 1% DMSO and 0.3 μg/ml ATF-2 fusion protein (New England Biolabs, 9224). Compounds were incubated under these conditions for 2 hours, at 25° C., prior to the initiation of the kinase activity by the addition of the 250 μM ATP. Reaction volumes were 20 uL. After 1 hr at 25° C. reactions were stopped by the adding 10 uL of 25 mM HEPES pH 7.5 containing 62.5 mM EDTA, 0.05% Triton X-100, 10% BSA and 0.83 ng/uL anti-phospho-ATF2 antibody (Abcam, ab28812). Detection was performed by measuring luminescence following the addition of Alphascreen Donor beads (Perkin Elmer 6765300) and Protein A Alphascreen Acceptor beads (Perkin Elmer 6760137), both at a final concentration of 20 ug/ml. IC50 values were determined from concentration-response curves.

[2] = tested on: Peripheral Blood Mononuclear Cells (PBMCs); test: LPS-stimulated PBMC TNFα release assay; type: cell-based; conditions: IC50 classes; human PBMC, LPS 10 ng/ml, 18 h; read-out: LPS-stimulated PBMC TNFα release inhibition
Experimental: 1-10 nM ‘+’; • <1 nM ‘++’ LPS-Stimulated PBMC TNFα Release Assay
Peripheral Blood Mononuclear Cells (PBMCs) were isolated from healthy human volunteer blood using a standard density gradient centrifugation technique. Citrated blood was placed onto Histopaque™ and centrifuged. The PBMCs were removed from the density gradient interface and washed in phosphate buffered saline (PBS). The PBMCs were suspended in RPMI 1640 medium (without serum), dispensed into a 96-well plate and incubated at 37° C. for 3 h in a humidified incubator. After incubation, the medium was replaced (with medium containing 1% foetal bovine serum) and the plate incubated at 37° C., for 1 h, in the presence of test compound or the appropriate vehicle. LPS (10 ng/ml), or an appropriate vehicle control, was then added to the cells and the plate returned to the incubator for 18 h. Cell-free supernatants were removed and assayed for TNFα levels using MSD plates on the Sector Imager 6000 (MesoScale).
A dose response curve to each test compound was performed and the effect of compound in each experiment was expressed as a percentage inhibition of the control TNFα release. Dose response curves were plotted and compound potency (IC50) was determined. Compounds were tested in at least three separate experiments.

[3] = tested on: BEAS-2B cells; test: TNFα-stimulated BEAS-2B IL-8 release assay; type: cell-based; conditions: Homo sapiens, IC50 classes, TNF-α 10 ng/ml, 18 h, read-out: TNFα-stimulated BEAS-2B IL-8 release inhibition
Experimental: TNFα-Stimulated BEAS-2B IL-8 Release Assay
Human bronchial epithelial cell line BEAS-2B was purchased from Sigma (St. Louis, Mo.). BEAS-2B cells were cultured in Bronchial Epithelial cell Growth Medium (BEGM), prepared by supplementing Bronchial Epithelial Basal Medium with SingleQuotes™ (Lonza, Switzerland), which contains retinoic acid, epidermal growth factor, epinephrine, transferrin, triiodothyronin, insulin, hydrocortisone, antimicrobial agents, and bovine pituitary extract. In addition, BEGM medium was supplemented with 2 mM glutamine, 100 U penicillin and 100 μg/ml streptomycin (Life Technologies), in an atmosphere of 95% air and 5% CO2 at 37° C.
BEAS-2B were seeded in 48-well plates at the density of 3×10^4 cells per well, grown to approximately 80-90% confluence. Cells were pre-incubated with p38 inhibitors for 1 hour and then stimulated with TNF-α (10 ng/ml) for 18 h at 37° C. with 5% CO2. Subsequently, supernatants were collected and used for measuring IL-8 levels using a paired antibody quantitative ELISA kit purchased from Life Technologies (detection limit: […]). All the treatments were performed at least in quadruplicate.
A concentration-response curve to each test compound was performed and the effect of compound in each experiment was expressed as a percentage inhibition of the control IL-8 release. Compound potency (IC50) was calculated by the analysis of the sigmoidal dose-response curve (variable slope) elaborated by Graph Pad PRISM4 program.

T1 sequence (Q16539 whole entry): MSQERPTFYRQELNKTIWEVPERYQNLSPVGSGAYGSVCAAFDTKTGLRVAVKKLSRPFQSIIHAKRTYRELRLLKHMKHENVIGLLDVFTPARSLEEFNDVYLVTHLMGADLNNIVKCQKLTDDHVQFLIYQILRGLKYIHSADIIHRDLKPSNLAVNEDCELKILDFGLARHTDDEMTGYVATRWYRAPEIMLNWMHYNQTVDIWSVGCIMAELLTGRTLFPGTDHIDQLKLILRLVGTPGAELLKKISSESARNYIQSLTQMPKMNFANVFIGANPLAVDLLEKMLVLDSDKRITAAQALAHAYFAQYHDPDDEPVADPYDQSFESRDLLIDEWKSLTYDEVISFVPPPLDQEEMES

Structure (SMILES)	IC50 [1]	IC50 [2] [nM]	IC50 [3] [nM]
COc1c(NC(=O)N[C@H]2CC[C@@H](Oc3ccc4nnc(C(C)(C)N(C)C)n4c3)c3ccccc32)cc(C(C)(C)C)cc1NS(=O)(=O)C1CC1 [Example 14, Cyclopropanesulfonic acid [5-tert-butyl-3-(3-{(1S,4R)-4-[3(1-dimethylamino-1-methyl-ethyl)-[1,2,4]triazolo[4,3-a]pyridin-6-yloxy]-1,2,3,4-tetrahydro-naphthalen-1-yl}-ureido)-2-methoxy-phenyl]-amide partial formate salt]	1 to 10 nM	< 1	< 0.3
COCCS(=O)(=O)Nc1cc(C(C)(C)C)cc(NC(=O)N[C@H]2CC[C@@H](Oc3ccc4nnc(C(C)(C)N(C)C)n4c3)c3ccccc32)c1OC [Example 15, 2-Methoxy-ethanesulfonic acid [5-tert-butyl-3-(3-{(1S,4R)-4-[3(1-dimethylamino-1-methyl-ethyl)-[1,2,4]triazolo[4,3-a]pyridin-6-yloxy]-1,2,3,4-tetrahydro-naphthalen-1-yl}-ureido)-2-methoxy-phenyl]-amide hydrochloride salt]	1 to 10 nM	< 1	< 0.3
COc1c(NC(=O)N[C@H]2CC[C@@H](Oc3ccc4nnc(C(C)(C)N(C)C)n4c3)c3ccccc32)cc(C(C)(C)C)cc1NS(=O)(=O)CC(C)C [Example 16, 2-Methyl-propane-1-sulfonic acid [5-tert-butyl-3-(3-{(1S,4R)-4-[3-(1-dimethylamino-1-methyl-ethyl)-[1,2,4]triazolo[4,3-a]pyridin-6-yloxy]-1,2,3,4-tetrahydro-naphthalen-1-yl}-ureido)-2-methoxy-phenyl]-amide hydrochloride salt]	1 to 10 nM and < 1 nM	1 to 5	0.3 to 1
CN(C)C(C)(C)c1nnc2ccc(O[C@@H]3CC[C@H](NC(=O)Nc4cc(NS(C)(=O)=O)cc(C(C)(C)C)c4)c4ccccc43)cn12 [Example 19, N-[3-tert-Butyl-5-(3-{(1S,4R)-4-[3-(1-dimethylamino-1-methyl-ethyl)-[1,2,4]triazolo[4,3-a]pyridin-6-yloxy]-1,2,3,4-tetrahydro-naphthalen-1-yl}-ureido)-phenyl]-methanesulfonamide]	< 1 nM	< 1	< 0.3
CN1CCC[C@]1(C)c1nnc2ccc(O[C@@H]3CC[C@H](NC(=O)Nc4cc(NS(C)(=O)=O)cc(C(C)(C)C)c4)c4ccccc43)cn12 [Example 20, N-[3-tert-Butyl-5-(3-{(1S,4R)-4-[3((R)-1,2-dimethyl-pyrrolidin-2-yl)-[1,2,4]triazolo[4,3-a]pyridin-6-yloxy]-1,2,3,4-tetrahydro-naphthalen-1-yl}-ureido)-phenyl]-methanesulfonamide]	< 1 nM	< 1	< 0.3
CN1CCC[C@H]1c1nnc2ccc(O[C@@H]3CC[C@H](NC(=O)Nc4cc(NS(C)(=O)=O)cc(C(C)(C)C)c4)c4ccccc43)cn12 [Example 21]	< 1 nM	1 to 5	0.3 to 1
CN1CCC[C@@]1(C)c1nnc2ccc(O[C@@H]3CC[C@H](NC(=O)Nc4cc(NS(C)(=O)=O)cc(C(C)(C)C)c4)c4ccccc43)cn12 [Example 24, N-[3-tert-Butyl-5-(3-{(1S,4R)-4-[3-((S)-1,2-dimethyl-pyrrolidin-2-yl)-[1,2,4]triazolo[4,3-a]pyridin-6-yloxy]-1,2,3,4-tetrahydro-naphthalen-1-yl}-ureido)-phenyl]-methanesulfonamide]	< 1 nM	< 1	< 0.3
CN1CCOC[C@H]1c1nnc2ccc(O[C@@H]3CC[C@H](NC(=O)Nc4cc(NS(C)(=O)=O)cc(C(C)(C)C)c4)c4ccccc43)cn12 [Example 25, N-[3-tert-Butyl-5-(3-{(1S,4R)-4-[3-((R)-4-methyl-morpholin-3-yl)-[1,2,4]triazolo[4,3-a]pyridin-6-yloxy]-1,2,3,4-tetrahydro-naphthalenyl}-ureido)-phenyl]-methanesulfonamide]	< 1 nM	> 5	> 1
CCN1CCC[C@@]1(C)c1nnc2ccc(O[C@@H]3CC[C@H](NC(=O)Nc4cc(NS(C)(=O)=O)cc(C(C)(C)C)c4)c4ccccc43)cn12 [Example 27, N-[3-tert-Butyl-5-(3-{(1S,4R)-4-[3-((S)-1-ethyl-2-methyl-pyrrolidin-2-yl)-[1,2,4]triazolo[4,3-a]pyridin-6-yloxy]-1,2,3,4-tetrahydro-naphthalen-1-yl}-ureido)-phenyl]-methanesulfonamide]	< 1 nM	< 1	< 0.3
CC(C)(C)c1cc(NC(=O)N[C@H]2CC[C@@H](Oc3ccc4nnc([C@@H]5CCCN5CCO)n4c3)c3ccccc32)cc(NS(C)(=O)=O)c1 [Example 31, N-{3-tert-Butyl-5-[3-((1S,4R)-4-{3-[(S)-1-(2-hydroxy-ethyl)-pyrrolidin-2-yl]-[1,2,4]triazolo[4,3-a]pyridin-6-yloxy}-1,2,3,4-tetrahydro-naphthalen-1-yl)-ureido]-phenyl}-methanesulfonamide]	< 1 nM	> 5	> 1
CN1CCC[C@@]1(CO)c1nnc2ccc(O[C@@H]3CC[C@H](NC(=O)Nc4cc(NS(C)(=O)=O)cc(C(C)(C)C)c4)c4ccccc43)cn12 [Example 33]	< 1 nM	< 1	0.3 to 1
CN1CCC[C@@]1(C)c1nnc2ccc(O[C@@H]3CC[C@H](NC(=O)Nc4cc(N)cc(C(C)(C)C)c4)c4ccccc43)cn12 [Example 35]	< 1 nM	1 to 5	< 0.3
CN1CCC[C@H]1c1nnc2ccc(O[C@@H]3CC[C@H](NC(=O)Nc4cc(NS(=O)(=O)C5CC5)cc(C(C)(C)C)c4)c4ccccc43)cn12 [Example 36, Cyclopropanesulfonic acid [3-tert-butyl-5-(3-{(1S,4R)-4-[3-((S)-1-methyl-pyrrolidin-2-yl)-[1,2,4]triazolo[4,3-a]pyridin-6-yloxy]-1,2,3,4-tetrahydro-naphthalen-1-yl}-ureido)-phenyl]-amide]	< 1 nM	1 to 5	0.3 to 1
CN1CCC[C@@]1(C)c1nnc2ccc(O[C@@H]3CC[C@H](NC(=O)Nc4cc(NS(=O)(=O)C5CC5)cc(C(C)(C)C)c4)c4ccccc43)cn12 [Example 37, Cyclopropanesulfonic acid [3-tert-butyl-5-(3-{(1S,4R)-4-[3-((S)-1,2-dimethyl-pyrrolidin-2-yl)-[1,2,4]triazolo[4,3-a]pyridin-6-yloxy]-1,2,3,4-tetrahydro-naphthalen-1-yl}-ureido)-phenyl]-amide]	1 to 10 nM	< 1	< 0.3
CNS(=O)(=O)c1cc(NC(=O)N[C@H]2CC[C@@H](Oc3ccc4nnc([C@@H]5CCCN5C)n4c3)c3ccccc32)cc(C(C)(C)C)c1 [Example 38, 3-tert-Butyl-N-methyl-5-(3-{(1S,4R)-4-[3-((S)-1-methyl-pyrrolidin-2-yl)-[1,2,4]triazolo[4,3-a]pyridin-6-yloxy]-1,2,3,4-tetrahydro-naphthalen-1-yl}-ureido)-benzenesulfonamide]	< 1 nM	1 to 5	0.3 to 1

From patent publication US10100050B2 (CHIESI FARMACEUTICI S.P.A., priority 2015, dated 2018)
